Patent US20170190671A1, “BIS(ARYL)CATECHOL DERIVATIVES AS HERBICIDES” (E I DU PONT DE NEMOURS AND COMPANY, priority 2014, published 2017)

Experiments:
Settings in all cases: scale 0 to 100
wild oat (Avenafatua) = experiment: Test D preemergence; format: in vivo, Avena fatua
Excerpt: (§1) Seeds of plant species selected from bluegrass (annual bluegrass, Poa annua), blackgrass (Alopecurus myosuroides), canarygrass (Phalaris minor), chickweed (common chickweed, Stellaria media), cutleaf geranium (Geranium dissectum), galium (catchweed bedstraw, Galium aparine), downy bromegrass (Bromus tectorum), field poppy (Papaver rhoeas), field violet (Viola arvensis), green foxtail (Setaria viridis), deadnettle (henbit deadnettle, Lamium amplexicaule), Italian ryegrass (Lolium multiflorum), kochia (Kochia scoparia), lambsquarters (Chenopodium album), oilseed rape (Brassica napus), pigweed (Amaranthus retroflexus), chamomile (scentless chamomile, Matricaria inodora), Russian thistle (Salsola kali), speedwell (bird's-eye speedwell, Veronica persica), spring barley (Hordeum vulgare), spring wheat (Triticum aestivum), wild buckwheat (Polygonum convolvulus), wild mustard (Sinapis arvensis), wild oat (Avenafatua), wild radish (Raphanus raphanistrum), windgrass (Apera spica-venti), winter barley (Hordeum vulgare), and winter wheat (Triticum aestivum) were planted into a silt loam soil and treated preemergence with test chemicals formulated in a non-phytotoxic solvent mixture which included a surfactant.
(§2) At the same time, these species were planted in pots containing Redi-Earth® planting medium (Scotts Company, 14111 Scottslawn Road, Marysville, Ohio 43041) comprising spaghnum peat moss, vermiculite, wetting agent and starter nutrients and treated with postemergence applications of the test chemicals formulated in the same manner. Plants ranged in height from 2 to 18 cm (1- to 4-leaf stage). Treated plants and controls were maintained in a controlled growth environment for 14 to 21 days after which time all species were compared to controls and visually evaluated. Plant response ratings, summarized in Table D, are based on a scale of 0 to 100 where 0 is no effect and 100 is complete control. A dash (-) response means no test result.

[1] = system: lambsquarters (Chenopodium album); experiment: Test D preemergence; format: in vivo
Excerpt: as §1, §2

[2] = system: wild radish (Raphanus raphanistrum); experiment: Test D preemergence; format: in vivo
Excerpt: as §1, §2

[3] = system: pigweed (Amaranthus retroflexus); experiment: Test D preemergence; format: in vivo
Excerpt: as §1, §2

[4] = system: cutleaf geranium (Geranium dissectum); experiment: Test D preemergence; format: in vivo
Excerpt: as §1, §2

[5] = system: green foxtail (Setaria viridis); experiment: Test D preemergence; format: in vivo
Excerpt: as §1, §2

[6] = system: blackgrass (Alopecurus myosuroides); experiment: Test D preemergence; format: in vivo
Excerpt: as §1, §2

kochia (Kochia scoparia) = experiment: Test D preemergence; format: in vivo
Excerpt: as §1, §2

[7] = system: spring wheat (Triticum aestivum); experiment: Test D preemergence; format: in vivo
Excerpt: as §1, §2

[8] = system: Italian ryegrass (Lolium multiflorum); experiment: Test D preemergence; format: in vivo
Excerpt: as §1, §2

[9] = system: lambsquarters (Chenopodium album); experiment: Test D postemergence; format: in vivo
In short: (§3)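 Visual injury scored 0–100 (0 = no effect, 100 = complete control) against controls 14 to 21 days after treatment in a controlled growth environment. Compounds were applied in surfactant-containing non-phytotoxic solvent, preemergence onto silt loam-sown seeds or postemergence onto 1- to 4-leaf plants.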

[10] = system: oilseed rape (Brassica napus); experiment: Test D postemergence; format: in vivo
In short: as §3

[11] = system: spring barley (Hordeum vulgare); experiment: Test D postemergence; format: in vivo
In short: as §3

[12] = system: windgrass (Apera spica-venti); experiment: Test D postemergence; format: in vivo
In short: as §3

[13] = system: field poppy (Papaver rhoeas); experiment: Test D postemergence; format: in vivo
In short: as §3

FC(F)(F)c1cnc(Oc2c(Br)cccc2Oc2ncc(Cl)cn2)nc1 [Compound 24]
40: Plant response rating, Wheat, Spring ([7]; 125 g ai/ha)
60: Plant response rating, Pigweed ([3]; 16 g ai/ha) | Plant response rating, Kochia (kochia (Kochia scoparia); 62 g ai/ha) | Plant response rating, Lambsquarters ([9]; 62 g ai/ha)
10: Plant response rating, Foxtail, Green ([5]; 16 g ai/ha) | Plant response rating, Ryegrass, Italian ([8]; 16 g ai/ha) | Plant response rating, Windgrass ([12]; 16 g ai/ha)
75: Plant response rating, Oat, Wild (wild oat (Avenafatua); 125 g ai/ha) | Plant response rating, Geranium, Cutleaf ([4]; 16 g ai/ha) | Plant response rating, Geranium, Cutleaf ([4]; 31 g ai/ha) | Plant response rating, Foxtail, Green ([5]; 62 g ai/ha) | Plant response rating, Lambsquarters ([9]; 125 g ai/ha) | Plant response rating, Oilseed Rape ([10]; 62 g ai/ha)
100: Plant response rating, Lambsquarters ([1]; 16 g ai/ha) | Plant response rating, Lambsquarters ([1]; 31 g ai/ha) | Plant response rating, Lambsquarters ([1]; 62 g ai/ha) | Plant response rating, Lambsquarters ([1]; 125 g ai/ha) | Plant response rating, Pigweed ([3]; 31 g ai/ha) | Plant response rating, Pigweed ([3]; 62 g ai/ha) | Plant response rating, Pigweed ([3]; 125 g ai/ha) | Plant response rating, Geranium, Cutleaf ([4]; 125 g ai/ha) | Plant response rating, Kochia (kochia (Kochia scoparia); 125 g ai/ha)
90: Plant response rating, Geranium, Cutleaf ([4]; 62 g ai/ha) | Plant response rating, Field Poppy ([13]; 62 g ai/ha)
15: Plant response rating, Oat, Wild (wild oat (Avenafatua); 31 g ai/ha) | Plant response rating, Blackgrass ([6]; 16 g ai/ha) | Plant response rating, Ryegrass, Italian ([8]; 31 g ai/ha) | Plant response rating, Barley, Spring ([11]; 16 g ai/ha) | Plant response rating, Windgrass ([12]; 31 g ai/ha)
70: Plant response rating, Radish, Wild ([2]; 125 g ai/ha) | Plant response rating, Oilseed Rape ([10]; 31 g ai/ha) | Plant response rating, Field Poppy ([13]; 16 g ai/ha)
45: Plant response rating, Radish, Wild ([2]; 62 g ai/ha) | Plant response rating, Lambsquarters ([9]; 31 g ai/ha)
20: Plant response rating, Radish, Wild ([2]; 31 g ai/ha) | Plant response rating, Barley, Spring ([11]; 31 g ai/ha) | Plant response rating, Barley, Spring ([11]; 62 g ai/ha)
25: Plant response rating, Oat, Wild (wild oat (Avenafatua); 62 g ai/ha) | Plant response rating, Blackgrass ([6]; 31 g ai/ha) | Plant response rating, Kochia (kochia (Kochia scoparia); 31 g ai/ha) | Plant response rating, Ryegrass, Italian ([8]; 62 g ai/ha) | Plant response rating, Barley, Spring ([11]; 125 g ai/ha) | Plant response rating, Windgrass ([12]; 62 g ai/ha)
0: Plant response rating, Oat, Wild (wild oat (Avenafatua); 16 g ai/ha) | Plant response rating, Radish, Wild ([2]; 16 g ai/ha) | Plant response rating, Kochia (kochia (Kochia scoparia); 16 g ai/ha) | Plant response rating, Wheat, Spring ([7]; 16 g ai/ha) | Plant response rating, Wheat, Spring ([7]; 31 g ai/ha) | Plant response rating, Wheat, Spring ([7]; 62 g ai/ha)
65: Plant response rating, Ryegrass, Italian ([8]; 125 g ai/ha) | Plant response rating, Oilseed Rape ([10]; 16 g ai/ha)
95: Plant response rating, Field Poppy ([13]; 125 g ai/ha)
80: Plant response rating, Oilseed Rape ([10]; 125 g ai/ha) | Plant response rating, Field Poppy ([13]; 31 g ai/ha)
55: Plant response rating, Blackgrass ([6]; 125 g ai/ha)
85: Plant response rating, Foxtail, Green ([5]; 125 g ai/ha)
35: Plant response rating, Foxtail, Green ([5]; 31 g ai/ha) | Plant response rating, Blackgrass ([6]; 62 g ai/ha) | Plant response rating, Lambsquarters ([9]; 16 g ai/ha) | Plant response rating, Windgrass ([12]; 125 g ai/ha)
